The subject of series [1] is B16-F10. The experiment in a line: Cytotoxicity against mouse B16-F10 cells assessed as inhibition of cell growth incubated for 24 hrs by resazurin staining based analysis. It is filed as functional. As to conditions: B16-F10, 24 h. In general terms: The colour change of resazurin is a common sign of viable cells or microbes.
A further series concerns LOX IMVI. As to the kind of experiment: Cytotoxicity against human LOX IMVI cells assessed as inhibition of cell growth incubated for 24 hrs by resazurin staining based analysis. It is filed as functional.
The subject of the next series is SK-MEL-28. As to the kind of experiment: Cytotoxicity against human SK-MEL-28 cells assessed as inhibition of cell growth incubated for 24 hrs by resazurin staining based analysis. The note with it: SK-MEL-28, 24 h. It is filed as functional.
The next series deals with SK-MEL-25. The experiment in a line: Cytotoxicity against human SK-MEL-25 cells assessed as inhibition of cell growth incubated for 24 hrs by resazurin staining based analysis. It is filed as functional. The note with it: SK-MEL-25, 24 h.
For another series, the system named is SK-MEL-5. The experiment in a line: Cytotoxicity against human SK-MEL-5 cells assessed as inhibition of cell growth incubated for 24 hrs by resazurin staining based analysis. It is filed as functional. As to conditions: SK-MEL-5, 24 h.
For series [2], the system named is B16-F10. As to the kind of experiment: Antitumor activity against mouse B16-F10 cells implanted in C57BL/6 mouse assessed as reduction of tumor weight at 40 mg/kg, ip administered once daily from 6 to 12 days and every alternate days till 18. It is filed as functional, organism-based. As to conditions: time 13.0 day.
Series [3] in a line: Toxicity in C57BL/6 mouse assessed as animal survival at 40 mg/kg, ip administered once daily from 6 to 9 days and every alternate days till 18. It is filed as organism-based. The note with it: in vivo, time 13 day.
The nature of series [4]: Toxicity in C57BL/6 mouse assessed as animal survival at 40 mg/kg, ip administered once daily from 6 to 9 days and every alternate days till 19. It is filed as organism-based. The note with it: in vivo, time 14 day.
Series [5] in a line: Toxicity in C57BL/6 mouse assessed as change in body weight at 40 mg/kg, ip administered once daily and measured up to 20 days. It is filed as organism-based. As to conditions: in vivo, 480 h, time < 20 day.
Series [6] can be described thus: Toxicity in C57BL/6 mouse assessed as change in albumin level at 40 mg/kg, ip administered once daily and measured up to 20 days. It is filed as organism-based. The note with it: in vivo, 480 h, time < 20 day.
Series [7] is described as follows: Toxicity in C57BL/6 mouse assessed as change in ALP level at 40 mg/kg, ip administered once daily and measured up to 20 days. It is filed as organism-based. The note with it: in vivo, 480 h, time < 20 day.
Series [8] can be described thus: Toxicity in C57BL/6 mouse assessed as change in ALT level at 40 mg/kg, ip administered once daily and measured up to 20 days. It is filed as organism-based. The note with it: in vivo, 480 h, time < 20 day.
The nature of series [9]: Toxicity in C57BL/6 mouse assessed as change in BUN level at 40 mg/kg, ip administered once daily and measured up to 20 days. It is filed as organism-based. As to conditions: in vivo, 480 h, time < 20 day.
A short description of series [10]: Toxicity in C57BL/6 mouse assessed as change in creatinine level at 40 mg/kg, ip administered once daily and measured up to 20 days. It is filed as organism-based. The note with it: in vivo, 480 h, time < 20 day.
Series [11] in a line: Toxicity in C57BL/6 mouse assessed as change in total bilirubin level at 40 mg/kg, ip administered once daily and measured up to 20 days. It is filed as organism-based. The note with it: in vivo, 480 h, time < 20 day.
A short description of series [12]: Toxicity in C57BL/6 mouse assessed as change in amylase level at 40 mg/kg, ip administered once daily and measured up to 20 days. It is filed as organism-based. The note with it: in vivo, 480 h, time < 20 day.

The source made the active and inactive calls. The calls are words filed in the database; no cut-off is given here. A value given as a limit tells only on which side of the number the result lay.

In general, IC50 refers to the concentration that gives 50% inhibition. On to `C#C[C@]1(O)CC[C@H]2[C@@H]3CC=C4c5sc(Nc6ccccc6)nc5CC[C@]4(C)[C@H]3CC[C@@]21C`, for which the IC50 stood at 2.7 µM in the series with B16-F10 [1]; 1.6 µM in the series with LOX IMVI; 1.7 µM in the series with SK-MEL-28; 1.6 µM in the series with SK-MEL-25; 2.4 µM in the series with SK-MEL-5. Also, in the series with B16-F10 [2], the result was Active. Further, in [3], the survival at 312 h is ~80%. Further, the survival at 336 h in series [4] is 10%. Besides, the Activity result in [5], in series [6], in series [7], in series [8], in [9] and in series [10] was “Non-toxic” each time. Moreover, the Activity entry in series [11] and in series [12] was “Non-toxic” throughout.
With `C#C[C@]1(O)CC[C@H]2[C@@H]3CC=C4c5sc(Nc6ccc(OC)cc6OC)nc5CC[C@]4(C)[C@H]3CC[C@@]21C`, the IC50 in the series on B16-F10 [1] was found to be 7.7 µM; in the series with LOX IMVI it was 3.4 µM; in the series on SK-MEL-28, 4.7 µM; in the series on SK-MEL-25 it was 3.3 µM; with SK-MEL-5, 3 µM.
Regarding `C[C@]12CCc3nc(Nc4cccc(F)c4)sc3C1=CC[C@@H]1[C@@H]2CC[C@]2(C)C(=O)CC[C@@H]12`, the IC50 was found to be 2.7 µM in the series with B16-F10 [1]; 1.6 µM in the series on LOX IMVI; 4.5 µM with SK-MEL-28; 4.2 µM in the series with SK-MEL-25; 6.7 µM with SK-MEL-5.
For `C#C[C@]1(O)CC[C@H]2[C@@H]3CC=C4c5sc(Nc6ncccc6C)nc5CC[C@]4(C)[C@H]3CC[C@@]21C`, in that order: 2.9 µM, 4.8 µM, 2.4 µM, > 20 µM and 5.5 µM.
`C#C[C@]1(O)CC[C@H]2[C@@H]3CC=C4c5sc(Nc6cc(Cl)ccn6)nc5CC[C@]4(C)[C@H]3CC[C@@]21C`: the half-maximal inhibitory concentration (IC50) with B16-F10 [1] is 3.8 µM; in the series on LOX IMVI, 3 µM; in the series with SK-MEL-28 it was 2.8 µM; in the series with SK-MEL-25, 4.4 µM; in the series with SK-MEL-5, 3.6 µM.
With `C[C@]12CCc3nc(Nc4ccccn4)sc3C1=CC[C@@H]1[C@@H]2CC[C@]2(C)C(=O)CC[C@@H]12`, the IC50 stood at 5.9 µM with B16-F10 [1]; 2.3 µM in the series with LOX IMVI; 8.9 µM in the series on SK-MEL-28; 11.8 µM with SK-MEL-25; 7.1 µM in the series on SK-MEL-5.
Consider `C[C@]12CCc3nc(Nc4ccc(F)cc4)sc3C1=CC[C@@H]1[C@@H]2CC[C@]2(C)C(=O)CC[C@@H]12`, for which the 50% inhibitory concentration (IC50) in the series on B16-F10 [1] is 4.5 µM; in the series on LOX IMVI, 1.8 µM; with SK-MEL-28, 3.4 µM; with SK-MEL-25 it was 1.4 µM; with SK-MEL-5, 6.4 µM.
Take `C#C[C@]1(O)CC[C@H]2[C@@H]3CC=C4c5sc(Nc6ccccn6)nc5CC[C@]4(C)[C@H]3CC[C@@]21C`: the IC50 in the series with B16-F10 [1] is 7.6 µM; in the series on LOX IMVI, 7.5 µM; with SK-MEL-28, 3.4 µM; in the series with SK-MEL-25, 4 µM; with SK-MEL-5, 2.6 µM.
Take `C#C[C@]1(O)CC[C@H]2[C@@H]3CC=C4c5sc(Nc6ccc(C)c(Cl)c6)nc5CC[C@]4(C)[C@H]3CC[C@@]21C`: the IC50 amounted to 4.9 µM in the series with B16-F10 [1]; 3.9 µM with LOX IMVI; 5.6 µM in the series on SK-MEL-28; 4.6 µM in the series with SK-MEL-25; 4.3 µM in the series on SK-MEL-5.
Take `C[C@]12CCc3nc(Nc4ccccc4)sc3C1=CC[C@@H]1[C@@H]2CC[C@]2(C)C(=O)CC[C@@H]12`: the IC50 in the series on B16-F10 [1] worked out at 5.8 µM; in the series with LOX IMVI it was 2.7 µM; with SK-MEL-28, 6.1 µM; in the series with SK-MEL-25, 6.8 µM; in the series with SK-MEL-5, 10.6 µM.
For the molecule `C#C[C@]1(O)CC[C@H]2[C@@H]3CC=C4c5sc(-c6ccc(O)cc6)nc5CC[C@]4(C)[C@H]3CC[C@@]21C`, the 50% inhibitory concentration (IC50) with B16-F10 [1] was 4.7 µM; in the series on LOX IMVI it was 3.3 µM; in the series on SK-MEL-28, 2.5 µM; in the series on SK-MEL-25, 3.7 µM; with SK-MEL-5, 3.2 µM.
Consider `Cc1cc(C)cc(Nc2nc3c(s2)C2=CC[C@@H]4[C@H](CC[C@]5(C)C(=O)CC[C@@H]45)[C@@]2(C)CC3)c1`, for which the IC50 was 8 µM in the series with B16-F10 [1]; 2.5 µM in the series on LOX IMVI; 2.5 µM in the series on SK-MEL-28; 3.2 µM in the series on SK-MEL-25; > 20 µM with SK-MEL-5.
`C[C@]12CCc3nc(Nc4cccc(O)c4)sc3C1=CC[C@@H]1[C@@H]2CC[C@]2(C)C(=O)CC[C@@H]12`: the IC50 with B16-F10 [1] was 6.7 µM; with LOX IMVI, 2.2 µM; in the series with SK-MEL-28, 12.6 µM; in the series with SK-MEL-25, 4.8 µM; in the series with SK-MEL-5 it was > 20 µM.
For `Cc1ccc(Nc2nc3c(s2)C2=CC[C@@H]4[C@H](CC[C@]5(C)C(=O)CC[C@@H]45)[C@@]2(C)CC3)cc1`, in that order: 4.9 µM, 4.2 µM, 4 µM, 4.3 µM and 7.3 µM.
Consider `COc1ccc(Cl)cc1Nc1nc2c(s1)C1=CC[C@@H]3[C@H](CC[C@]4(C)C(=O)CC[C@@H]34)[C@@]1(C)CC2`, for which the IC50 was 3.6 µM with B16-F10 [1]; 3 µM in the series on LOX IMVI; 4.8 µM in the series with SK-MEL-28; > 20 µM with SK-MEL-25; > 20 µM in the series with SK-MEL-5.
Regarding `C[C@]12CCc3nc(Nc4ncccn4)sc3C1=CC[C@@H]1[C@@H]2CC[C@]2(C)C(=O)CC[C@@H]12`, the IC50 in the series on B16-F10 [1] was 3 µM; with LOX IMVI it was > 20 µM; with SK-MEL-28, > 20 µM; in the series with SK-MEL-25, 1.8 µM; with SK-MEL-5, 1.3 µM.
Turning to `C#C[C@]1(O)CC[C@H]2[C@@H]3CC=C4c5sc(-c6cccc(F)c6)nc5CC[C@]4(C)[C@H]3CC[C@@]21C`, the IC50 in the series with B16-F10 [1] was 8.5 µM; in the series with LOX IMVI it was 15.3 µM; in the series on SK-MEL-28, 14 µM; with SK-MEL-25 it was > 20 µM; in the series with SK-MEL-5, 20 µM.

Source of the values: ChEMBL document CHEMBL6182831, “Thiazole-fused androstenone and ethisterone derivatives: potent β- and γ-actin cytoskeleton inhibitors to treat melanoma tumors” (RSC Med Chem, 2025).
